The OligoGym collection
“And” between values parts separate entries of the source, which are not always exact repeats. Identical values can stand only once. HELM strings list units from the 5' end as sugar, base in round brackets, then linkage (d deoxyribose, r ribose, m 2'-O-methyl, p phosphodiester). Methylation of C is not given here. [moe] = 2'-O-(2-methoxyethyl) (MOE); [cEt] = constrained ethyl (cEt); [sp] = phosphorothioate linkage

Target: HBV
Settings: ASO

Row | Substance | target mRNA inhibition (HepG2, 0.07 µM) | other results
1 | RNA1{[moe](A)[sp].[moe](A)[sp].[moe](C)[sp].[moe](T)[sp].[moe](G)[sp].d(G)[sp].d(A)[sp].d(G)[sp].d(C)[sp].d(C)[sp].d(A)[sp].d(C)[sp].d(C)[sp].d(A)[sp].[moe](G)[sp].[moe](C)}$$$$V2.0 | 50% and 39% | 
2 | RNA1{[moe](A)[sp].[moe](A)[sp].[moe](G)[sp].[cEt](C)[sp].d(G)[sp].d(A)[sp].d(A)[sp].d(G)[sp].d(T)[sp].d(G)[sp].d(C)[sp].d(A)[sp].d(C)[sp].[cEt](A)[sp].[moe](C)[sp].[moe](G)[sp].[moe](G)}$$$$V2.0 |  | target mRNA inhibition (HepG2, 0.009375 µM): 28%; target mRNA inhibition (HepG2, 0.01875 µM): 27%; target mRNA inhibition (HepG2, 0.0375 µM): 42%; target mRNA inhibition (HepG2, 0.075 µM): 59%; target mRNA inhibition (HepG2, 0.15 µM): 81%; target mRNA inhibition (HepG2, 0.3 µM): 88%
3 | RNA1{[moe](A)[sp].[moe](A)[sp].[moe](G)[sp].[moe](C)[sp].[moe](G)[sp].[moe](A)[sp].d(A)[sp].d(G)[sp].d(T)[sp].d(G)[sp].d(C)[sp].d(A)[sp].d(C)[sp].d(A)[sp].d(C)[sp].[moe](G)[sp].[moe](G)}$$$$V2.0 | 92% and 73% | target mRNA inhibition (HepG2, 0.0092593 µM): 20%; target mRNA inhibition (HepG2, 0.0277778 µM): 36%; target mRNA inhibition (HepG2, 0.0833333 µM): 54%; target mRNA inhibition (HepG2, 0.25 µM): 76%
4 | RNA1{[moe](A)[sp].[moe](A)[sp].[moe](G)[sp].[moe](C)[sp].[moe](G)[sp].d(A)[sp].d(A)[sp].d(G)[sp].d(T)[sp].d(G)[sp].d(C)[sp].d(A)[sp].d(C)[sp].d(A)[sp].[moe](C)[sp].[moe](G)}$$$$V2.0 | 71% and 68% | 
5 | RNA1{[moe](A)[sp].[moe](A)[sp].[moe](G)[sp].d(C)[sp].d(G)[sp].d(A)[sp].d(A)[sp].d(G)[sp].d(T)[sp].d(G)[sp].d(C)[sp].d(A)[sp].[moe](C)[sp].[moe](A)[sp].[moe](C)[sp].[moe](G)}$$$$V2.0 | 74% and 64% | 
6 | RNA1{[moe](A)[sp].[moe](A)[sp].[moe](T)[sp].[moe](T)[sp].d(T)[sp].d(A)[sp].d(T)[sp].d(G)[sp].d(C)[sp].d(C)[sp].d(T)[sp].d(A)[sp].d(C)[sp].[moe](A)[sp].[moe](G)[sp].[moe](C)[sp].[moe](C)}$$$$V2.0 | 40% and 36% | 
7 | RNA1{[moe](A)[sp].[moe](A)[sp].[moe](T)[sp].d(T)[sp].d(T)[sp].d(A)[sp].d(T)[sp].d(G)[sp].d(C)[sp].d(C)[sp].d(T)[sp].d(A)[sp].[moe](C)[sp].[moe](A)[sp].[moe](G)[sp].[moe](C)[sp].[moe](C)}$$$$V2.0 | 56% and 39% | 
8 | RNA1{[moe](A)[sp].[moe](A)[sp].d(G)[sp].d(A)[sp].d(T)[sp].d(G)[sp].d(A)[sp].d(G)[sp].d(G)[sp].d(C)[sp].d(A)[sp].[moe](T)[sp].[moe](A)[sp].[moe](G)[sp].[moe](C)[sp].[moe](A)[sp].[moe](G)}$$$$V2.0 | 72% and 68% | 
9 | RNA1{[moe](A)[sp].[moe](A)[sp].d(T)[sp].d(T)[sp].d(T)[sp].d(A)[sp].d(T)[sp].d(G)[sp].d(C)[sp].d(C)[sp].d(T)[sp].[moe](A)[sp].[moe](C)[sp].[moe](A)[sp].[moe](G)[sp].[moe](C)[sp].[moe](C)}$$$$V2.0 | 52% and 48% | 
10 | RNA1{[moe](A)[sp].[moe](C)[sp].[moe](C)[sp].[moe](A)[sp].[moe](A)[sp].[moe](T)[sp].d(T)[sp].d(T)[sp].d(A)[sp].d(T)[sp].d(G)[sp].d(C)[sp].d(C)[sp].d(T)[sp].d(A)[sp].[moe](C)[sp].[moe](A)}$$$$V2.0 | 5% and 18% | 
11 | RNA1{[moe](A)[sp].[moe](C)[sp].[moe](C)[sp].[moe](A)[sp].[moe](A)[sp].d(T)[sp].d(T)[sp].d(T)[sp].d(A)[sp].d(T)[sp].d(G)[sp].d(C)[sp].d(C)[sp].d(T)[sp].[moe](A)[sp].[moe](C)[sp].[moe](A)}$$$$V2.0 | 33% and 18% | 
12 | RNA1{[moe](A)[sp].[moe](C)[sp].[moe](C)[sp].[moe](A)[sp].[moe](C)[sp].d(T)[sp].d(G)[sp].d(A)[sp].d(A)[sp].d(C)[sp].d(A)[sp].d(A)[sp].d(A)[sp].d(T)[sp].[moe](G)[sp].[moe](G)}$$$$V2.0 | 60% and 52% | 
13 | RNA1{[moe](A)[sp].[moe](C)[sp].[moe](C)[sp].[moe](A)[sp].d(C)[sp].d(T)[sp].d(G)[sp].d(A)[sp].d(A)[sp].d(C)[sp].d(A)[sp].d(A)[sp].d(A)[sp].[moe](T)[sp].[moe](G)[sp].[moe](G)[sp].[moe](C)}$$$$V2.0 | 60% and 61% | 
14 | RNA1{[moe](A)[sp].[moe](C)[sp].[moe](G)[sp].[moe](T)[sp].[moe](G)[sp].[moe](C)[sp].d(A)[sp].d(G)[sp].d(A)[sp].d(G)[sp].d(G)[sp].d(T)[sp].d(G)[sp].d(A)[sp].d(A)[sp].[moe](G)[sp].[moe](C)}$$$$V2.0 | 78% and 58% | 
15 | RNA1{[moe](A)[sp].[moe](C)[sp].[moe](G)[sp].d(T)[sp].d(G)[sp].d(C)[sp].d(A)[sp].d(G)[sp].d(A)[sp].d(G)[sp].d(G)[sp].d(T)[sp].[moe](G)[sp].[moe](A)[sp].[moe](A)[sp].[moe](G)[sp].[moe](C)}$$$$V2.0 | 79% and 72% | 
16 | RNA1{[moe](A)[sp].[moe](C)[sp].[moe](T)[sp].[moe](A)[sp].d(G)[sp].d(T)[sp].d(A)[sp].d(A)[sp].d(A)[sp].d(C)[sp].d(T)[sp].d(G)[sp].d(A)[sp].[moe](G)[sp].[moe](C)[sp].[moe](C)}$$$$V2.0 | 62% and 63% | 
17 | RNA1{[moe](A)[sp].[moe](C)[sp].[moe](T)[sp].[moe](G)[sp].d(G)[sp].d(A)[sp].d(G)[sp].d(C)[sp].d(C)[sp].d(A)[sp].d(C)[sp].d(C)[sp].d(A)[sp].[moe](G)[sp].[moe](C)[sp].[moe](A)}$$$$V2.0 | 45% and 20% | 
18 | RNA1{[moe](A)[sp].[moe](C)[sp].[moe](T)[sp].d(A)[sp].d(G)[sp].d(T)[sp].d(A)[sp].d(A)[sp].d(A)[sp].d(C)[sp].d(T)[sp].d(G)[sp].[moe](A)[sp].[moe](G)[sp].[moe](C)[sp].[moe](C)}$$$$V2.0 | 64% and 69% | 
19 | RNA1{[moe](A)[sp].[moe](C)[sp].[moe](T)[sp].d(G)[sp].d(G)[sp].d(A)[sp].d(G)[sp].d(C)[sp].d(C)[sp].d(A)[sp].d(C)[sp].d(C)[sp].[moe](A)[sp].[moe](G)[sp].[moe](C)[sp].[moe](A)[sp].[moe](G)}$$$$V2.0 | 67% and 65% | 
20 | RNA1{[moe](A)[sp].[moe](C)[sp].d(C)[sp].d(A)[sp].d(A)[sp].d(T)[sp].d(T)[sp].d(T)[sp].d(A)[sp].d(T)[sp].d(G)[sp].[moe](C)[sp].[moe](C)[sp].[moe](T)[sp].[moe](A)[sp].[moe](C)[sp].[moe](A)}$$$$V2.0 | 54% and 47% | 
21 | RNA1{[moe](A)[sp].[moe](C)[sp].d(G)[sp].d(T)[sp].d(G)[sp].d(C)[sp].d(A)[sp].d(G)[sp].d(A)[sp].d(G)[sp].d(G)[sp].[moe](T)[sp].[moe](G)[sp].[moe](A)[sp].[moe](A)[sp].[moe](G)[sp].[moe](C)}$$$$V2.0 | 78% | target mRNA inhibition (HepG2, 0.0092593 µM): 20%; target mRNA inhibition (HepG2, 0.0277778 µM): 25%; target mRNA inhibition (HepG2, 0.0833333 µM): 69%; target mRNA inhibition (HepG2, 0.25 µM): 89%
22 | RNA1{[moe](A)[sp].[moe](G)[sp].[moe](A)[sp].[moe](G)[sp].d(G)[sp].d(T)[sp].d(G)[sp].d(A)[sp].d(A)[sp].d(G)[sp].d(C)[sp].d(G)[sp].d(A)[sp].[moe](A)[sp].[moe](G)[sp].[moe](T)}$$$$V2.0 | 52% and 54% | 
23 | RNA1{[moe](A)[sp].[moe](G)[sp].[moe](A)[sp].[moe](T)[sp].d(G)[sp].d(A)[sp].d(G)[sp].d(G)[sp].d(C)[sp].d(A)[sp].d(T)[sp].d(A)[sp].d(G)[sp].[moe](C)[sp].[moe](A)[sp].[moe](G)[sp].[moe](C)}$$$$V2.0 | 45% and 40% | 
24 | RNA1{[moe](A)[sp].[moe](G)[sp].[moe](A)[sp].d(A)[sp].d(G)[sp].d(T)[sp].d(C)[sp].d(C)[sp].d(A)[sp].d(C)[sp].d(C)[sp].d(A)[sp].[moe](C)[sp].[moe](G)[sp].[moe](A)[sp].[moe](G)[sp].[moe](T)}$$$$V2.0 | 41% and 44% | 
25 | RNA1{[moe](A)[sp].[moe](G)[sp].[moe](A)[sp].d(G)[sp].d(G)[sp].d(T)[sp].d(G)[sp].d(A)[sp].d(A)[sp].d(G)[sp].d(C)[sp].d(G)[sp].d(A)[sp].[cEt](A)[sp].[cEt](G)[sp].[cEt](T)}$$$$V2.0 | 69% and 74% | 
26 | RNA1{[moe](A)[sp].[moe](G)[sp].[moe](A)[sp].d(T)[sp].d(G)[sp].d(A)[sp].d(G)[sp].d(G)[sp].d(C)[sp].d(A)[sp].d(T)[sp].d(A)[sp].d(G)[sp].[cEt](C)[sp].[cEt](A)[sp].[cEt](G)}$$$$V2.0 | 50% and 70% | 
27 | RNA1{[moe](A)[sp].[moe](G)[sp].[moe](G)[sp].[moe](C)[sp].[moe](A)[sp].[moe](T)[sp].d(A)[sp].d(G)[sp].d(C)[sp].d(A)[sp].d(G)[sp].d(C)[sp].d(A)[sp].d(G)[sp].d(G)[sp].[moe](A)[sp].[moe](T)}$$$$V2.0 | 71% and 50% | 
28 | RNA1{[moe](A)[sp].[moe](G)[sp].[moe](G)[sp].d(C)[sp].d(A)[sp].d(T)[sp].d(A)[sp].d(G)[sp].d(C)[sp].d(A)[sp].d(G)[sp].d(C)[sp].[moe](A)[sp].[moe](G)[sp].[moe](G)[sp].[moe](A)[sp].[moe](T)}$$$$V2.0 | 55% and 53% | 
29 | RNA1{[moe](A)[sp].[moe](G)[sp].[moe](G)[sp].d(C)[sp].d(A)[sp].d(T)[sp].d(A)[sp].d(G)[sp].d(C)[sp].d(A)[sp].d(G)[sp].d(C)[sp].d(A)[sp].[cEt](G)[sp].[cEt](G)[sp].[cEt](A)}$$$$V2.0 | 69% and 77% | 
30 | RNA1{[moe](A)[sp].[moe](G)[sp].[moe](T)[sp].d(T)[sp].d(C)[sp].d(C)[sp].d(G)[sp].d(C)[sp].d(A)[sp].d(G)[sp].d(T)[sp].d(A)[sp].[moe](T)[sp].[moe](G)[sp].[moe](G)[sp].[moe](A)}$$$$V2.0 | 46% and 58% | 
